target: Induced myeloid leukemia cell differentiation protein Mcl-1 (Homo sapiens) (UniProt Q07820); experiment: Mcl-1 Noxa peptide disruption concentration-response – biochemical, TR-FRET, dose response (AID 1417); settings: Mcl-1/Noxa peptide interaction, cell-free TR-FRET (terbium/rhodamine), 2 h; measured here: absolute IC50
Sequence (Q07820 whole entry, looked up): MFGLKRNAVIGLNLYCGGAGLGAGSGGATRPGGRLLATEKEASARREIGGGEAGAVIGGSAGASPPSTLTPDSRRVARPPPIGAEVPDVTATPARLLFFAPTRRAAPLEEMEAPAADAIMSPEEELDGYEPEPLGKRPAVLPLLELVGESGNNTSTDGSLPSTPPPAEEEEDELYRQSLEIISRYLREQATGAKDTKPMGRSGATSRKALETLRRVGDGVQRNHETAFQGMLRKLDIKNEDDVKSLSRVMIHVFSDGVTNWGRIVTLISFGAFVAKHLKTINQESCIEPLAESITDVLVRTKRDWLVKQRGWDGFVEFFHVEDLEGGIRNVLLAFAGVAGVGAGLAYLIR

SMILES | IC50 [µM]
Cc1ccc(CSc2nnc(SCC(=O)N/N=C/c3c[nH]c4ccccc34)s2)cc1 | 10.1
COc1cc(SC)ccc1C(=O)N1CCN(c2ccccc2)CC1 | > 54
COC(=O)C1=Nc2ccccc2/C1=C\c1c(O)n(-c2ccc(Br)cc2)c(=O)[nH]c1=O | 7.49
CCOc1cc(/C=C2\C(=O)N(c3nc(-c4ccc(Br)cc4)cs3)N=C2c2ccccc2)ccc1O | 1.65
COc1cccc(C(=O)Nc2ccc3nc(N4CCN(c5ncccn5)CC4)cc(C)c3c2)c1OC | 8.07
CC1CCN(c2ccc(NC(=O)Cc3ccccc3)cc2)CC1 | > 54
CN(C)c1ccc(/C=c2\sc3nc(-c4ccccc4)nn3c2=O)cc1 | 8.8
CCCOc1ncnc2c1[nH]c1ccccc12 | > 54
O=[N+]([O-])c1ccc2[nH]c(O)c(N=NC(=S)Nc3cccnc3)c2c1 | 8.86
O=C(Nc1nc2ccccc2[nH]1)c1ccc(Cl)c([N+](=O)[O-])c1 | 8.74
CCOC(=O)c1c(C)oc2c1c(CN1CCN(CCO)CC1)c(O)c1ccccc12 | < 0.4
Cc1ccc(S(=O)(=O)/N=C2/C=C(C3C(=O)CC(C)(C)CC3=O)C(=O)c3ccccc32)cc1 | 2.87
COC(=O)C1=C(C(=O)OC)C(c2cc(Cl)ccc2O)c2sc(=O)[nH]c2S1 (stereo not given) | 3.35
O=C(Nc1nc(-c2ccco2)c(-c2ccco2)s1)C1CC(=O)N(c2ccc3c(c2)OCCO3)C1 (stereo not given) | 5.49
O=C(Nc1cccc(S(=O)(=O)NC2=NCCCCC2)c1)c1cc(-c2ccco2)nc2ccccc12 | < 0.4
CNc1sc(C(=O)c2ccc(F)cc2)c(N)c1-c1nc2ccccc2s1 | 2.09
O=C1N=c2ccccc2=C1c1sc(Nc2ccc(O)cc2)nc1O | 1.2
CCOc1ccc2nc(N3C(=O)/C(=C/c4ccc(Cl)cc4)NC3=S)sc2c1 | 1.55
O=c1oc2ccccc2c(O)c1/C=C1\C=Nc2ccccc21 | 4.8
CN(CCC#N)C(=O)COC(=O)c1c2c(nc3ccccc13)/C(=C/c1ccco1)CC2 | 1.63
Cc1ccc(-c2ccc(/C=C3/NC(=O)NC3=O)o2)cc1[N+](=O)[O-] | 6.44
CCOC(=O)CC1=CSC2=NS(=O)(=O)CCN12 | > 54
O=C(c1ccc2nc(-c3ccco3)c(-c3ccco3)nc2c1)N1CCN(c2ncccn2)CC1 | 12.6
c1ccc(Nc2cccc(Nc3ccccc3)c2)cc1 | > 54
CCOC(=O)c1cc(C(O)(C(=O)OC)C(F)(F)F)c(/N=C/N(C)C)o1 (stereo not given) | > 54
O=C1N/C(=N/Nc2ccccc2)S/C1=C\c1ccccc1 | > 54
COc1cc(/C=N\Nc2nc(-c3cccs3)c(NC(C)=O)s2)ccc1O | < 0.4

SMILES | IC50 [µM]
CCOc1cc(/C=C(\C#N)c2[nH]nc(N)c2C#N)ccc1O | 4.6
Oc1[nH]c2ccccc2c1N=Nc1nc2ccccc2s1 | 5.01
O=C(O)CCCN1C(=O)/C(=C\c2ccc(-c3nc4ccccc4s3)o2)SC1=S | 1.12
O=C1C2C3C=CC(C2C(=O)N1c1cccc(O)c1)C1C2C(=O)N(c4cccc(O)c4)C(=O)C2C31 (stereo not given) | > 54
O=C(O)C1Nc2c(C(=O)N3CCOCC3)cccc2C2C=CCC12 (stereo not given) | > 54
CC(=O)Nc1ccc(C2=NNC(=Nc3cccc(S(=O)(=O)N(C)C)c3)SC2)cc1 | 3.03
O=c1oc2c(O)c(O)cc3c(=O)oc4c(O)c(O)cc1c4c23 | < 0.4
COc1cc2c(-c3ccc(O)cc3)nc3c(c(C)nn3-c3ccccc3)c2cc1OC | 1.19
CCOC(=O)c1sc2nc3c(SCC(=O)O)cc(C(=O)c4cc(F)ccc4O)cn3c(=O)c2c1C | 2.26
Cc1nc(S/C(=C\c2ccc(-c3ccc(C(=O)O)c(Cl)c3)o2)C(=O)O)n[nH]1 | < 0.4
COc1cc(/C=C2\SC(=O)N(c3ccc(Cl)cc3)C2=O)cc([N+](=O)[O-])c1O | < 0.4
O=[N+]([O-])c1cc(S(=O)(=O)c2ccc(O)c([N+](=O)[O-])c2)ccc1O | 0.846
Oc1ccc(/C=N/NC(=S)Nc2cccnc2)c(O)c1O | < 0.4
O=C(N/N=C/c1ccncc1)c1cc([N+](=O)[O-])cc([N+](=O)[O-])c1O | 2.49
COc1ccc(N2CCN(C(=O)c3ccc(CSc4ccccc4)cc3)CC2)cc1 | > 54
CCOc1cc(/C=N/NC(=O)c2ccc(-c3csc(Nc4ccc(C)cc4)n3)cc2)ccc1OCC(=O)O | 1.07
Nc1scc2c(C(=O)N/N=C/c3ccc(Cl)cc3)nn(-c3ccccc3)c(=O)c12 | 1.32
Nc1nc2c(c(=O)[nH]1)C(c1cccc3ccccc13)C1=C(N2)c2ccccc2C1=O (stereo not given) | 4.17
CCCSC1=N/C(=C\c2ccc([N+](=O)[O-])o2)C(=O)S1 | 3.01
Cc1cc(C)c(S(=O)(=O)/N=C2/C=C(Sc3ncn[nH]3)C(=O)c3ccccc32)cc1C | < 0.4
O=C1CC(N2CCN(S(=O)(=O)c3ccccc3)CC2)C(=O)N1c1ccccc1 (stereo not given) | > 54
COCCn1nnnc1C(c1ccc(O)c(OC)c1)N1CCc2ccccc2C1 (stereo not given) | < 0.4
CCOC(=O)c1ccc(N=Nc2c(C)c(C#N)c(O)[nH]c2=O)cc1 | 2.84
Cc1cc(=O)oc2cc(OCc3ccc(C(=O)OCC(=O)Nc4ccc(N(C)C)cc4)cc3)ccc12 | < 0.4
O=C1CSC(=S)N1/N=C/c1ccc(O)c(O)c1O | < 0.4
CNC(=O)COC(=O)c1cc(-c2ccco2)nc2ccccc12 | 3.16
Cc1[nH]c2ccccc2c1/C=N/Nc1ccc([N+](=O)[O-])cc1 | 0.76

SMILES | IC50 [µM]
O=[N+]([O-])c1ccc(N/N=C/c2ccc(O)c(O)c2O)c(S(=O)(=O)N2CCOCC2)c1 | < 0.4
Cc1ccc(NC(=S)NNc2ccc([N+](=O)[O-])cc2S(=O)(=O)Nc2ccccc2C(=O)O)cc1C | 1.27
COc1ccccc1C(=O)N=Nc1c(O)[nH]c2ccc([N+](=O)[O-])cc12 | 4.72
COc1cccc2c(=O)c3cccc(N)c3[nH]c12 | > 54
C/C(=N\Nc1cccc(C(=O)O)c1)c1ccc2c(c1)Nc1ccccc1S2 | < 0.4
O=C(O)c1cccc2c1NC(c1cccc([N+](=O)[O-])c1)C1CC(Sc3ccccc3[N+](=O)[O-])C(Cl)C21 (stereo not given) | 2.25
Cn1c(N)c(C(=O)COC(=O)c2cc(-c3ccco3)nc3ccccc23)c(=O)n(C)c1=O | 3.41
C=C(C)C(=O)Nc1cccc(C2=NOC3(C2)C[C@H](C(N)=O)N(C(=O)/C=C/C)C3)c1 (stereo not given in full) | 2.94
O=C1CC(=O)c2c1cccc2[N+](=O)[O-] | 2.56
O=C(O)c1ccc(N/N=C/c2ccc(OC(=O)c3cccc(Cl)c3)cc2)cc1 | 7.31
CN(C)c1ccc(NC(=O)/C=C/c2c(Cl)cccc2Cl)cc1 | > 54
CC(C)CC1NC(=O)N(CC(=O)N2c3ccccc3NC(=O)C2(C)C)C1=O (stereo not given) | > 54
COc1cc(C(Nc2ccccn2)c2ccc3ccc(C)nc3c2O)cc(OC)c1O (stereo not given) | < 0.4
CC(C)OC(=O)Cn1cnc2ccc(Br)cc2c1=O | > 54
COc1cc(/C=C(\C#N)c2nc3ccccc3s2)cc([N+](=O)[O-])c1O | 3.37
O=[N+]([O-])c1cc(CN2CCOCC2)c2cccnc2c1O | < 0.4
N#C/C(=C/c1ccc(OCc2ccc(C(=O)O)cc2)c(Br)c1)c1cccc(F)c1 | < 0.4
Cc1ccc(-n2cccc2/C=C2/C(=N)N3C(=NC2=O)SN=C3S(C)(=O)=O)cc1Cl | 1.1
COc1ccc2[nH]c3c(=O)n(Cc4ccc(C(=O)N5CCCC5)cc4)c(=S)[nH]c3c2c1 | > 54
CSC1=N/C(=C\c2ccccc2F)C(=O)S1 | > 54
COc1ccc(CCNC(=O)c2ccc3nc(-c4ccco4)c(-c4ccco4)nc3c2)cc1OC | 4.47
O=c1/c(=C/c2ccc(O)c([N+](=O)[O-])c2)sc2nc3ccccc3n12 | 4.26
COc1ccc(-c2cc3nc4ccccc4n3c(N)c2C#N)cc1 | 4.45
Cc1sc(NC(=O)c2cc(-c3ccc(Cl)cc3)nc3ccccc23)c(C(N)=O)c1C | 18.2
O=c1[nH]c(=S)[nH]c(O)c1N=Nc1ccc(-c2ccccc2)cc1[N+](=O)[O-] | 2.99
CCN(CC)c1nc2c3c(nc4c(c3c1C#N)CC(=O)N4c1ccc(Cl)cc1)NC(C)=N2 | 3.19
O=C(Nc1ccc([N+](=O)[O-])cc1)Nc1nc(-c2ccc(Cl)s2)cs1 | 1.82

SMILES | IC50 [µM]
CCc1ccc(S(=O)(=O)/N=C2/C=C(Sc3ncn[nH]3)C(=O)c3ccccc32)cc1 | < 0.4
CC1=NN(C(N)=S)C(=O)C1N=Nc1ccc(O)cc1 (stereo not given) | 11.2
Cc1nn(Cc2ccc(F)cc2)c2sc(C(=O)Nc3ccc(N4CCOCC4)cc3N3CCOCC3)cc12 | > 54
O=C(/C=C/c1cccnc1)c1ccc(O)cc1 | > 54
Cc1cccc(C(=O)NC(=S)NNC(=O)c2ccc(Cl)cc2)c1 | > 54
COc1cccc(NS(=O)(=O)c2ccc3c(c2)C2C=CCC2C(c2ccc(C(=O)O)cc2)N3)c1 (stereo not given) | 1.02
Oc1ccc(N2CCN(c3ncnc4sc5c(c34)CCC5)CC2)cc1 | 6.63
COc1ccc(C(CC(=O)N2CCCC2)c2c(OC)cc(OC)c3c(-c4ccccc4)cc(=O)oc23)cc1 (stereo not given) | 3.89
Cc1cccc(N=C2NC(=O)/C(=C/C=C/c3ccco3)S2)c1 | 13.5
CSc1cnn(Cc2ccccc2)c(=O)c1SCc1ccccc1 | > 54
CCN(CC)c1ccc(/C=N/N2CCN(Cc3ccccc3)CC2)cc1 | > 54
COc1cc(/C=C/c2nc3ccccc3c(=O)n2-c2cccc(O)c2)ccc1O | 10.5
O=[N+]([O-])c1ccc2c(c1)N([O-])C1(CCCCC1)[N+]2=O | < 0.4
Cc1cccc2cc(/C=N/NC(=O)c3ccccc3O)c(Cl)nc12 | 6.09
CCOc1ccc2nc(NC(=O)c3cccc(-c4cc5ccccc5oc4=O)c3)sc2c1 | 3.75
CCN1c2ccccc2N(C)C1(C)c1ccccc1 (stereo not given) | 5.11
COc1ccc(NC(=O)c2cc(-c3ccco3)nc3ccccc23)cc1S(=O)(=O)N1CCOCC1 | < 0.4
Cc1cc(C)c(S(=O)(=O)NCc2cn3c(C)csc3n2)cc1C | > 54
O=C(Nc1cccc(Cl)c1)Nc1nnc(-c2ccncc2)s1 | 4.03
O=C(O)COc1ccc(/C=N/NC(=O)c2ccc(-c3csc(Nc4ccc(Cl)cc4)n3)cc2)cc1 | 0.784
Nc1c(O)ccc2c1C(=O)c1ccccc1C2=O | 43.4
Cc1sccc1/C=N/NC(=O)c1cccc2ccccc12 | > 54
O=c1c2c3nc4ccccc4nc3n(Cc3ccccc3)c2ncn1Cc1ccco1 | > 54
CC1CCCCC1NC(=O)c1ccc2c(c1)[nH]c(=O)n2C1CCCC1 (stereo not given) | > 54
